# Measurements: patent US6207648A, “Methods of using cytochrome P450 reductase for the enhancement of P450-based anti-cancer gene therapy” (priority 1998, dated 2001)
# Entries after “also recorded” stand apart in the source; their conditions may differ. Like-named read-outs stand apart in the source and are kept apart here.
# How the values were obtained:
# [1] = test system: 9L gliosarcoma cells (parental, CYP2B1+, CYP2B1+ RED+++); experiment: In vitro growth inhibition assay, XTT (Example 1); conditions: for increase of cell survival ratio in CYP2B1+ RED+++ cells / rescue of CYP2B1+ and CYP2B1+ RED+++ cells from CPA toxicity: 1 mM CPA, AADP 0.5 mM or DPI 5 μM; for rescue of CYP2B1+ and CYP2B1+ RED+++ cells from CPA toxicity: FIG. 4
# Experimental: Cells (1000/well) seeded in 96-well plates were treated with the indicated concentrations of CPA for 4 days. Corresponding controls received no drug treatment. Cell survival was determined by an XTT calorimetric assay. Data (mean for triplicate samples) were expressed as growth ratio (%), i. e., cell number (XTT activity) in drug treated plates as a percentage of the corresponding drug-free controls.
# Cells (500/well) seeded in 96-well plates were treated with 1 mM cyclophosphamide in the absence or presence of the RED inhibitors AADP (0.5 mM) or DPI (5 μM). Corresponding controls received no drug treatment. Cell survival was determined by an XTT colorimetric assay. Data (mean for triplicate samples) are expressed as growth ratio (%), i.e., cell number (XTT activity) in drug treated plates as a percentage of the corresponding drug-free controls and are representative of 2-3 independent experiments. AADP and DPI were added to the cells 30 minutes prior to CPA treatment.
# (B) Growth inhibition assay--Cells (1000/well) seeded in 96 well plates were treated with the indicated concentrations of CPA for 4-5 days. Corresponding controls received no drug treatment. Cell survival was determined by an XTT colorimetric assay, a cell proliferation assay that measures mitochondrial dehydrogenase activity of viable cells (Scudiero, D. A., et al., Cancer Res. 48:4827-4833 (1988)).
# [2] = test system: P450 2C9; conditions: cited from earlier work
# [3] = test system: CYP2C9; conditions: subset of cancer patients; cited from earlier work
# [4] = test system: 9L/wt cells; experiment: Intrinsic chemosensitivity of 9L/wt cells to chemically activated CPA and IFA; assay type: cell-based, rat
# Experimental: 9L/wt cells seeded at 2000 cells/ well in 48-well plates were treated for 3-4 hours with increasing concentrations of 4-hydroperoxy-CPA or 4-hydroxyperoxy-IFA (0 to 100 μM). Cells were then incubated in fresh drug-free media and allowed to grow for 4 days. Cell growth as a percent of drug-free controls was then determined by crystal violet staining. Data shown are mean±range for duplicate samples.
# Briefly, culture dishes were washed once with phosphate buffered saline (PBS), stained for 10 minutes with crystal violet (1.25 g crystal violet (Sigma) dissolved in 500 ml containing 50 ml of 37% formaldehyde and 450 ml methanol), and then washed with PBS, twice for 20 minutes per wash. Absorbance values were measured in an SLT Spectra microtiter plate reader using a 595 nm filter. Background absorbance determined from wells containing culture media alone was subtracted from each value.
# [5] = test system: 9L/pBabe bystander cells; experiment: Bystander cytotoxicity/co-culture with cell culture inserts; assay type: cell-based, rat; conditions: Rattus norvegicus, 96 h, 9L/2B6/reductase, 0.67 mM
# Experimental: FIGS. 18A and 18B are graphs depicting the bystander cytotoxicity of 9L/2B6/reductase and 9L/2B6 cells. In FIG. 18A, bystander cytotoxicity of 9L/2B6/reductase cells is compared to that of 9L/2B6 cells. In both cases, 9L/pBabe served as the bystander cells. 9L/pBabe cells were plated in duplicate at 10^5 cells/well of a 6-well plate (lower chamber). 9L/2B6/reductase cells or 9L/2B6 cells were plated in 25 mm cell culture inserts (upper chamber) at concentrations ranging from 10^4 to 6×10^5 cells, corresponding to ratios of 0.1 to 6 relative to the bystander 9L/pBabe cells growing in the lower chamber, as shown on the x-axis. Cells were incubated in a total volume of 3 ml Dulbecco's minimal essential medium (DMEM), 10% FBS, containing 1 mM CPA, final CPA concentration.
# The experimental design was the same as in FIG. 18A, except that the final drug concentration was 0.67 mM. Data shown for both panels correspond to the survival of 9L/pBabe bystander cells in the lower chamber.
# Bystander cytotoxicity/co-culture experiments: 9L/pBabe cells were plated in duplicate at 10^5 cells/well in the lower chamber of a 6-well Falcon co-culture plate (30 mm diameter wells) (Falcon 3046). 9L/2B6/reductase cells were plated in 25 mm cell culture inserts (0.4 μm pore size; Falcon 3090), at dilutions ranging from 0. 1 to 6 times the number of 9L/pBabe cells plated in the lower chamber. […] Relative cell numbers were quantitated 4 days later by crystal violet staining.
# [6] = in vivo; cited from earlier work
# [7] = test system: human cytochrome P450s; conditions: cited from earlier work
# [8] = test system: 9L tumor cells; experiment: Control experiment: effect of semicarbazide on cell viability; assay type: cell-based, rat; conditions: 5 mM, up to 48 hours
# [9] = test system: 9L, 9L/2B1 and 9L/2B1/RED cells; experiment: Adriamycin growth inhibition assay; assay type: cell-based, rat
# Experimental: The indicated 9L, 9L/2B1 and 9L/2B1/RED clonal cell lines, described in Example 1, were treated with Adriamycin for 2 days at the indicated drug concentrations. Cytotoxicity was measured after 5 days continuous culture using a growth inhibition assay, as described under FIG. 2B of Example 1. […] Data shown are averages of duplicates.
# (§1) Corresponding controls received no drug treatment.
# 9L gliosarcoma cell lines stably expressing rat P450 2B1 and rat RED: The following rat 9L gliosarcoma transfectants were those already described in Example 1: P3 and P17, which stably express P450 gene CYP2B1; 9L-lacZ, which stably expresses the E. coli β-galactosidase gene; R26, which stably expresses rat RED but not P450; and PR1, PR7, PR11, which stably express rat P450 2B1 and rat RED.
# [10] = test system: 9L/pBabe, 9L/2B6, 9L/hRED and 9L/2B6/hRED gliosarcoma cells
# Experimental: Cells were seeded at 4000 cells/well in 48-well plates and treated with increasing concentrations of CPA for 4 days. Cell growth in comparison to drug-free controls was determined by crystal violet staining and is presented as mean±SD for n=3 replicates.
# FIG. 21 is a graph depicting the cytotoxic effects of the bioreductive drug TPZ toward 9L/pBabe control cells and 9L cells transduced with retroviruses encoding human RED and/or P450 2B6 under normoxic culture conditions. Cells were seeded at 4000 cells/well in 48-well plates and treated with increasing concentrations of TPZ for 4 days. Cell growth in comparison to drug-free controls was determined by crystal violet staining and is presented as mean±SD for n=3 replicates.
# FIG. 22 is a graph depicting the cytotoxicity of increasing concentrations of TPZ under hypoxic conditions (1% O2) toward 9L tumor cells transduced with retroviruses encoding P450 2B6 and/or human RED. 9L/pBabe cells served as controls. Cells were seeded at 4000 cells/well in 48-well plates and treated with increasing concentrations of TPZ for 4 days. Cell growth in comparison to drug-free controls was determined by crystal violet staining and is presented as mean±SD for n=3 replicates.
# FIGS. 24A, 24B and 24C are graphs depicting the cytotoxic effects of TPZ (5 or 10 μM, as indicated) in combination with increasing concentrations of CPA under normoxic culture conditions (19.6% O2, 5% CO2). The data shown were obtained using 9L/2B6/hRED cells (FIG. 24A), 9L/hRED cells (FIG. 24B) and 9L/pBabe (control) cells (FIG. 24C). Data were compared to the cytotoxicity of increasing concentrations of CPA alone (i. e., in the absence of TPZ) measured using the same pools of tumor cells. Cells were seeded at 4000 cells/well in 48-well plates and then treated with the indicated drug concentrations for 4 days. Cell growth in comparison to drug-free controls (i.e., in the absence of CPA and TPZ) was determined by crystal violet staining and is presented as mean±SD for n=3 replicates.
# FIGS. 25A, 25B and 25C are graphs depicting the cytotoxic effects of TPZ (0.5 or 1.5 μM, as indicated) in combination with increasing concentrations of CPA under hypoxic culture conditions (1% O2, 5% CO2). The data shown were obtained using 9L/2B6/hRED cells (FIG. 25A), 9L/hRED cells (FIG. 25B) and 9L/pBabe (control) cells (FIG. 25C). Data were compared to the cytotoxicity of increasing concentrations of CPA alone (i.e., in the absence of TPZ) measured using the same pools of tumor cells. Cells were seeded at 4000 cells/well in 48-well plates and then treated with the indicated drug concentrations for 4 days. Cell growth in comparison to drug-free controls (i.e., in the absence of CPA and TPZ) was determined by crystal violet staining and is presented as mean±SD for n=3 replicates.
# Cytotoxicity assays: To evaluate the chemosensitivity of the P450- and P450/RED-expressing 9L tumor cells, cells were plated in triplicate at 4000 cells/well of a 48-well plate 18-24 hours prior to drug treatment. Cells were then treated with drugs (0 to 1 mM CPA or 0 to 50 μM TPZ, as indicated in each experiment) and placed in a tissue culture incubator maintained under hypoxic conditions (1% O2, 5% CO2, 94% N2) or under normoxic conditions (19.6% O2, 5% CO2, 75.4% N2) for a period of 4 days. 9L/pBabe cells, which were transduced with the empty retroviral plasmid pBabe-puro (see, Example 2), served as controls. Cells remaining after this time were quantitated using a crystal violet/alcohol-extraction assay, as described under Example 2. Data are presented as cell number relative to drug-free controls, mean±SD values for triplicate samples, unless indicated otherwise.
# [11] = test system: rodent and human tumor xenograft models; conditions: cited from earlier work
# [12] = test system: 9L gliosarcoma cells (parental, CYP2B1+, CYP2B1+ RED+++); experiment: In vitro colony formation cytotoxicity assay (Example 1); assay type: cell-based, rat; conditions: FIG. 3A
# Excerpt: FIGS. 2A and 2C depict the results of a colony formation cytotoxicity assay.
# FIG. 3A depicts results from a colony formation cytotoxicity assay. […] The survival fraction is expressed as the number of colonies in each treatment group compared to the untreated control.
# as §1
smiles,measurement,setting,value
"Nc1ccc[n+]([C@@H]2O[C@H](COP(=O)([O-])OP(=O)(O)OC[C@H]3O[C@@H](n4cnc5c(N)ncnc54)[C@H](O)[C@@H]3O)[C@@H](O)[C@H]2O)c1 [AADP, 3-aminopyridine adenine dinucleotide]",toxicity to the cells in absence of CPA,[1]; 0.5 mM,no toxicity to the cells
same,increase of cell survival ratio in CYP2B1+ RED+++ cells,[1],2-3 fold
same,rescue of CYP2B1+ and CYP2B1+ RED+++ cells from CPA toxicity,[1],partially rescued
Nc1ccc(S(=O)(=O)Nc2ccnn2-c2ccccc2)cc1 [sulfaphenazole],inhibition of P450 2C9-catalyzed human liver CPA activation,[2],inhibits P450 2C9-catalyzed human liver CPA activation
same,effect on elimination of CPA,[3],slows the elimination of CPA
O=P1(N(CCCl)CCCl)NC(OO)CCO1 (stereo not shown) [4-hydroperoxy-CPA],sensitivity of 9L cells to activated CPA compared to activated IFA,"[4]; 0 to 100 μM, 3-4 h, 4 days regrowth",approximately 3 fold
same,intrinsic sensitivity of 9L cells to activated CPA compared to activated IFA,[4]; FIG. 16,greater intrinsic sensitivity
"O=P1(NCCCl)OCCCN1CCCl (stereo not shown) [IFA, ifosfamide]",cytotoxicity at 670 µM,"[5]; cell ratio 6:1, read-out: maximum bystander cytotoxicity",~50%
same,cytotoxicity at 670 µM,"[5]; cell ratios up to 3:1, read-out: bystander cytotoxicity",≤ 25%
same,side effects of systemic distribution of drug and alkylating metabolites,[6],"cardiotoxicity, renal toxicity, marrow suppression, and neurotoxoxicity"
"Clc1cnc(Oc2ccc(Oc3ncc(Cl)cc3Cl)cc2)c(Cl)c1 [TCPOBOP, 1,4-bis-2-(3,5-dichloropyridyloxybenzene)]",induction of human cytochrome P450s in colon and breast tumors,[7],profound inducer
NNC(N)=O [semicarbazide],effect on cell viability,[8],no detectable effect on cell viability
"COc1cccc2c1C(=O)c1c(O)c3c(c(O)c1C2=O)C[C@@](O)(C(=O)CO)C[C@@H]3O[C@H]1C[C@H](N)[C@H](O)[C@H](C)O1 [Adriamycin, doxorubicin]",toxicity to 9L and 9L/lacZ cells without P450 metabolism,"[9]; 100 nM, 2 days",toxic to 9L cells
same,effect of co-expression of RED with P450 2B1 on Adriamycin cytotoxicity,[9]; PR11 and PR7,large enhancement in Adriamycin cytotoxicity; also recorded: Enhanced cytotoxicity
same,chemosensitization to Adriamycin in line PR1,[9]; RED overexpression approximately 2-fold,more modest chemosensitization
same,effect of RED overexpression alone on Adriamycin cytotoxicity,[9]; line R26,did not enhance the cytotoxicity
"Nc1n[n+]([O-])c2ccccc2[n+]1[O-] [TPZ, 3-amino-1,2,4-benzotriazine-1,4-di-N-oxide]",effect of P450 2B6 and RED on TPZ cytotoxicity,[10],substantial increase in cytotoxicity
same,effect of P450 2B6 expression alone on TPZ cytotoxicity,[10],no effect on the cytotoxicity
same,effect of P450 2B6 on TPZ cytotoxicity,[10],Some enhanced cytotoxicity
same,effect of RED gene transfer on TPZ sensitivity,[10],chemosensitized 9L tumor cells
same,"effect of RED gene transfer, with or without P450 2B6, on TPZ cytotoxicity",[10],increase in TPZ cytotoxicity
same,intrinsic cytotoxicity under hypoxic vs normoxic conditions,[10],intrinsically more cytotoxic
same,effect of TPZ on activity of CPA and other cancer chemotherapeutics,[11]; in vivo,enhance the activity of CPA
same,bone marrow toxicity with TPZ combination,[11]; with CPA and other chemotherapeutics,corresponding increase in bone marrow toxicity
CC(C)(C(=O)c1cccnc1)c1cccnc1 [metyrapone],blocking of CPA cytotoxicity toward CYP2B1+ cells,"[12]; 10 μM and higher, P3 and P17",significantly blocked the cytotoxic effects
same,inhibition of CPA cytotoxicity in RED-overexpressing CYP2B1+ cells,[12]; 10 μM,only slightly inhibited the cytotoxic effect
same,blocking of CPA cytotoxicity toward CYP2B1+ cells,"[1]; 10 μM and higher, P3 and P17, FIG. 3",significantly blocked the cytotoxic effects
same,inhibition of CPA cytotoxicity in RED-overexpressing CYP2B1+ cells,"[1]; 10 μM, FIG. 3",only slightly inhibited the cytotoxic effect
"c1ccc2c(c1)[I+]c1ccccc1-2 [DPI, diphenyleneiodonium chloride]",increase of cell survival ratio in CYP2B1+ RED+++ cells,[1],3-5 fold
same,rescue of CYP2B1+ and CYP2B1+ RED+++ cells from CPA toxicity,[1],partially rescued
same,inhibition at 5 µM,"[1]; Rattus norvegicus, read-out: growth inhibition in absence of CPA",~20%
